# Patent US6515010B1 (SmithKline Beecham Corporation, priority 1999, dated 2003)
# Assays:
# [1] = pKa of carvedilol free base; type: physicochemical
# physchem [2] = settings: 25 °C, water, thermodynamic from solid
# physchem [3] = test: physchem
# [4] = Aqueous solubility at 25° C. of carvedilol and its salt forms; settings: water
pKa [1],solubility at 1 hr (physchem [2]),solubility at 24 hr (physchem [2]),"solubility (physchem [3]; pH 4, aqueous buffer)","solubility (physchem [3]; pH 9, aqueous buffer)",Molecule,aqueous solubility (in words) [4],Aqueous Solubility ([4]; time 0.5 hr),Aqueous Solubility ([4]; time 1 hr),Aqueous Solubility ([4]; time 4 hr),Aqueous Solubility ([4]; time 70 hr)
7.6,9.8 µg/mL,11.6 µg/mL,~200 µg/mL,< 1 µg/mL,COc1ccccc1OCCNCC(O)COc1cccc2[nH]c3ccccc3c12 (stereo not shown) [Carvedilol],,,,,
,,,,,Hydrochloride,poorly soluble in water,1650 µg/mL,1630 µg/mL,1370 µg/mL,1060 µg/mL
